Target: T1, mutant BKCa channel (G803D/N806K) (Rattus norvegicus, UniProt Q62976, G803D/N806K)
T1 construct: expressed in transfected cells
Test: Cell-based TI+ fluorescence (FluxOR) assay in AD-293 cells
Conditions: for TI+-fluorescence enhancement (initial RFU increase): 10 μM, n=4
Description: AD-293 cells (Lee et al., 2013), as a modified HEK293 cell for expressing a mutant BKCa channel, were placed in DMEM (Dulbecco's Modified Eagle's medium) supplemented with 10% fetal bovine serum and 1 mg/ml geneticin (Gibco) as an antibiotic. The cells were cultured under a humidified condition of 5% CO2 and 37° C.
AD-293 cells stably expressing the mutant BKCa channel (G803D/N806K) were used for cell-based assays (Lee et al., 2013). Approximately 20,000 cells/well were inoculated on a black-wall assay plate (Corning Incorporated) coated with poly-D-lysine (Sigma-Aldrich), which is 96-well clear-bottom. A FluxOR™ […] (Invitrogen) was used for initial screening of compound libraries, and for further assay of candidate compounds. Experiments were performed according to the manufacturer's following guidelines: growth medium was replaced with 80 μl/well of loading buffer containing FluxOR™ fluorescent dye, and incubation was carried out for 1 hour under a light-free condition. After the incubation, the loading buffer was replaced with 100 μl/well of assay buffer containing various concentrations of compounds of interest, followed by incubation for 20 minutes to 30 minutes. DMSO (1%) was vehicle and the vehicle was used for all test compounds. CTBIC (Cormemis et al. 2005; Lee et al. 2012), previously identified as an activator of the BKCa channel, was used as a positive control. For fluorescence measurements, synergy TM H1 hybrid multi-mode microplate reader (BioTek Instrument Inc., Winnoski, Vt.) and Cen5 software was used in initial screening. For additional assays, Flexstation 3 multi-mode microplate reader (Molecular Devices) and SoftMax®Pro software were used, respectively. A fluorescence signal was obtained at an excitation wavelength of 485 nm and an emission wavelength of 528 nm. Membrane polarization was induced by a stimulus buffer containing thallium ion. The fluorescence signal was measured under two conditions: every 10 seconds for 2 minutes before treating the stimulation buffer and then every 10 seconds for 3 minutes after addition of stimulation buffer for synergy H1, and every 2 seconds for 20 seconds before stimulus buffer treatment, and then every 2 seconds for 160 seconds after adding the stimulus buffer for FlexStation 3.
A fluorescence signal change was measured based on a relative fluorescence unit (RFU) or F/F0 where F0 is ta minimum fluorescence value of each fluorescence trace. To quantitatively compare activation effects of kurarinone and its derivatives, an initial fluorescence increase was calculated using first three points after treatment with the stimulation buffer, and a linear slope was predicted using OriginPro 9.1 (OriginLab Corp., Northampton, Mass.).

T1 sequence (Q62976 whole entry G803D/N806K): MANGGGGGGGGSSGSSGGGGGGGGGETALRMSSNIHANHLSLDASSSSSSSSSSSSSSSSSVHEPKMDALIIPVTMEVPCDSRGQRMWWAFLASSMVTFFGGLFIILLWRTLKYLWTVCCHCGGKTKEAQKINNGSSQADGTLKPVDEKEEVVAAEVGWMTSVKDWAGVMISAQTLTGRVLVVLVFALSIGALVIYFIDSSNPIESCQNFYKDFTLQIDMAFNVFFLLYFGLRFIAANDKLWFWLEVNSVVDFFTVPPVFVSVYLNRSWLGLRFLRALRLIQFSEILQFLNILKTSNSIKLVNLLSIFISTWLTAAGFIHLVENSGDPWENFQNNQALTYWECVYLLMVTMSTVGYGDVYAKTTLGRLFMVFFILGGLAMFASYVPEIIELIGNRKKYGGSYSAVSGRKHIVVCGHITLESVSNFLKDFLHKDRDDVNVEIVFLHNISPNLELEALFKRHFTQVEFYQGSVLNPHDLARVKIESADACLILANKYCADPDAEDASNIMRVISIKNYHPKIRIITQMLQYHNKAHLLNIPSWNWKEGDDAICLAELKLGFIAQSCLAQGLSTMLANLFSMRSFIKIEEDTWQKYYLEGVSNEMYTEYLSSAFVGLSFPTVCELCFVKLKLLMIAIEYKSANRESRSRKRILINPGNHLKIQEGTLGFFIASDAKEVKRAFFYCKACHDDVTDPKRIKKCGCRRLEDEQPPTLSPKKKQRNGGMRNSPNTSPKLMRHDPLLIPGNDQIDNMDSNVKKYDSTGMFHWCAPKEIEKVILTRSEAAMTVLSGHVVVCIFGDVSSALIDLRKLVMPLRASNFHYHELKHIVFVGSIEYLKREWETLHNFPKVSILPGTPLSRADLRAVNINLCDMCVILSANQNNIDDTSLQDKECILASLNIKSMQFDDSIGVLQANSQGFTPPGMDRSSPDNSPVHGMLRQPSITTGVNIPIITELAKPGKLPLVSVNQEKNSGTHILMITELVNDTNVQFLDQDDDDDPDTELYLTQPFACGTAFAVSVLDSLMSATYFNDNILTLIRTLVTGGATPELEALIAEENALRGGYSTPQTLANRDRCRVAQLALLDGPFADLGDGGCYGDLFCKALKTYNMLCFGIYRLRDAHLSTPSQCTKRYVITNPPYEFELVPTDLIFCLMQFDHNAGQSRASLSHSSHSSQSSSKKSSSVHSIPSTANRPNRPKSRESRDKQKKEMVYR

Question: C=C(C)[C@H](CCC(C)(C)O)Cc1c(O)cc(OC)c2c1O[C@H](c1ccc(O)cc1O)CC2=O [kurarinol, reference compound] was tested. Which “TI+-fluorescence enhancement (initial RFU increase)” value did it give?
Answer: The value was “weaker fluorescence effects”.

Question: For CC(C)=CCc1c(O)cc(O)c2c1O[C@H](c1ccc(O)cc1O)CC2=O [leachianone G], which “TI+-fluorescence enhancement (initial RFU increase)” value is on record?
Answer: The value was “strong fluorescence increase”.

Question: With O=C1C[C@@H](c2ccc(O)cc2)Oc2cc(O)cc(O)c21 [naringenin] as the molecule, how does the “TI+-fluorescence enhancement (initial RFU increase)” value read?
Answer: Its value is “strong fluorescence increase”.

Question: Which “block of kurarinone-induced fluorescence enhancement” value (co-treatment of 1 μM blocker with kurarinone (5 μM)) does the source give for CC(C)(O)[C@H]1O[C@H]2CC[C@@]3(C)[C@@](O)(CC[C@H]4Cc5c([nH]c6ccccc56)[C@@]43C)C2=CC1=O [pacilin, reference compound] here?
Answer: The value was “completely blocked”.
